The source of these data is the NIST ThermoML archive (doi:10.1016/j.jct.2008.07.012).

Numbers after ± are expanded uncertainties.

A short description of this data set: molar enthalpy of vaporization or sublimation. The conditions noted are these: 298.15 K; Crystal; Calvet Calorimetry.
In the case of `O=[N+]([O-])c1ccccc1Cl` [1-chloro-2-nitrobenzene], the molar enthalpy stood at 19.3 ± 0.717 kcal/mol. Consider `O=[N+]([O-])c1cccc(Cl)c1` [1-chloro-3-nitrobenzene], for which the molar enthalpy turned out to be 19.7 ± 0.717 kcal/mol. Turning to `O=[N+]([O-])c1ccc(Cl)cc1` [1-chloro-4-nitrobenzene], the molar enthalpy was 18.2 ± 1 kcal/mol.
